By IC50 is commonly meant the midpoint of a concentration-inhibition curve. Low readings indicate greater potency, high ones weaker potency.

In assay [1] the target is muscarinic cholinergic receptor. Description: [3H] Quinuclidinyl Benzilate (3H-QNB) Binding Assay. Set-up: species or system rat. To be noted: pH 7.4.
The target is the same in assay [2]. Put plainly: [3H]-Cis-methyldioxolane (3H-CD) Binding Assay (High Affinity). The following applies: rat cerebral cortex, 1.0 nM 3H-CD, 25° C., 120 minutes, pH 7.4.
Setting [3] is: rat cerebral cortex, 0.25 nM 3H-QNB, 25° C., 120 minutes.

Structures can show the parent of a compound that is named as a salt.

Turning to `CN(C)CC#CCN1C[C@@H](O)CC1=O`, the IC50 in assay [1] came out at 1510 µM; in assay [2], 10.1 µM.
Consider `O=C1CCCN1CC#CCN1CCC(O)C1` (racemic) [(Racemic)-1-[4-(3-Hydroxy-1-pyrrolidinyl)-2-butynyl]-2-pyrrolidinone], for which the IC50 in assay [1] came out at 395 µM; in assay [2], 0.425 µM.
For the molecule `COC1CCN(CC#CCN2CCCC2=O)C1` (racemic) [(Racemic)-1-[4-(3-Methoxy-1-pyrrolidinyl)-2-butytnyl]-2-pyrrolidinone, (Racemic)-1-[4-(3-Methoxy-1-pyrrolidinyl)-2-butynyl]-2-pyrrolidinone], the results for the IC50 in assay [1] and in assay [2] were 110 µM and 1.75 µM, respectively.
For `CC(=O)OC1CCN(CC#CCN2CCCC2=O)C1` (racemic) [(Racemic)-1-[4-[3-(Acetyloxy)-1-pyrrolidinyl]-2-butynyl]-2-pyrrolidinone] the same measures were 313 µM and 1.33 µM.
For `CC(=O)OC1CCN(CC#CCN(C)C(C)=O)C1` (racemic) [(Racemic)-N-[4-(3-(Acetyloxy)-1-pyrrolidinyl]-2-butynyl]-N-methyl acetamide, (Racemic)-N-[4-[3-(Acetyloxy)-1-pyrrolidinyl]-2-butynyl]-N-methyl acetamide] the same measures were 1930 µM and 5.46 µM.
In the same order, the values of `CC(=O)N(C)CC#CCN1CCC(O)C1` (racemic) [(Racemic)-N-[4-(3-Hydroxy-1-pyrrolidinyl)-2-butynyl]-N-methyl acetamide] are 1190 µM and 2.01 µM.
For the molecule `COC1CCN(CC#CCN(C)C(C)=O)C1` (racemic) [(Racemic)-N-[4-(3-Methoxy-1-pyrrolidinyl)-2-butynyl]-N-methyl acetamide], the IC50 was determined as 377 µM in assay [1] and 1.37 µM in assay [2].
For `O=C1CCCN1CC#CCN1CCCCC1` [1-[4-(1-Piperidinyl)-2-butynyl]-2-pyrrolidinone, reference compound], the results for the IC50 in assay [1] and in assay [2] were 2 µM and 0.077 µM, respectively.
In the same order, the values of `CN(C)CC#CCN1CCCC1=O` [1-[4-(Dimethylamino)-2-butynyl]-2-pyrrolidinone, reference compound] are 163 µM and 0.044 µM.
For `O=C1C(S)CCN1CC#CCN1CCCCC1` (stereo not shown) [3-Mercapto-1-[4-(1-piperidinyl)-2-butynyl]-2-pyrrolidinone] the same measures were 11 µM and 0.587 µM.
As to `CN(C)CC#CCN1CC[C@@H](OC(=O)c2ccc([N+](=O)[O-])cc2)C1=O` [(R)-1-[4-(Dimethylamino)-2-butynyl]-3-[(4-nitrobenzoyl)oxy]-2-pyrrolidinone], the IC50 in assay [1] (setting [3]) amounted to 113 µM; in assay [2], 5.01 µM.
With `CN(C)CC#CCN1CC[C@@H](O)C1=O` [(R)-1-[4-(Dimethylamino)-2-butynyl]-3-hydroxy-2-pyrrolidinone], the IC50 in assay [1] came to 1470 µM; in assay [2] it was 0.578 µM.
For `CN(C)CC#CCN1CC[C@@H](S)C1=O` [(R)-1-[4-(Dimethylamino)-2-butynyl]-3-mercapto-2-pyrrolidinone, monohydrochloride] the same measures were 31 µM and 0.076 µM.
For `CN(C)CC#CCN1C[C@H](O)CC1=O` [(R)-1-[4-(Dimethylamino)-2-butynyl]-4-hydroxy-2-pyrrolidinone], the IC50 in assay [1] turned out to be 2350 µM; in assay [2], 0.578 µM.
Take `CC(=O)O[C@@H]1CCN(CC#CCN2CCCCC2)C1=O` [(R)-3-(Acetyloxy)-1-[4-(1-piperidinyl)-2-butynyl]-2-pyrrolidinone]: the IC50 in assay [1] was 419 µM; in assay [2] it was 4.47 µM.
For `CC(=O)O[C@@H]1CCN(CC#CCN2CCCC2)C1=O` [(R)-3-(Acetyloxy)-1-[4-(1-pyrrolidinyl)-2-butynyl]-2-pyrrolidinone] the same measures were 231 µM and 0.547 µM.
For `O=C1[C@H](O)CCN1CC#CCN1CCCCC1` [(R)-3-Hydroxy-1-[4-(1-piperidinyl)-2-butynyl]-2-pyrrolidinone] the same measures were 84 µM and 3.46 µM.
For `O=C1[C@H](O)CCN1CC#CCN1CCCC1` [(R)-3-Hydroxy-1-[4-(1-pyrrolidinyl)-2-butynyl]-2-pyrrolidinone] the same measures were 47 µM and 0.134 µM.
As for `O=C1[C@H](S)CCN1CC#CCN1CCCC1` [(R)-3-Mercapto-1-[4-(1-pyrrolidinyl)-2-butynyl]-2-pyrrolidinone], the values for the IC50 in assay [1] and in assay [2] were 1 µM and 0.007 µM, respectively.
In the same order, the values of `CO[C@@H]1CCN(CC#CCN2CCCCC2)C1=O` [(R)-3-Methoxy-1-[4-(1-piperidinyl)-2-butynyl]-2-pyrrolidinone] are 459 µM and 28.1 µM.
With `CO[C@@H]1CCN(CC#CCN2CCCC2)C1=O` [(R)-3-Methoxy-1-[4-(1-pyrrolidinyl)-2-butynyl]-2-pyrrolidinone], the IC50 in assay [1] stood at 283 µM; in assay [2], 1.97 µM.
`O=C(O[C@@H]1CCN(CC#CCN2CCCCC2)C1=O)c1ccc([N+](=O)[O-])cc1` [(R)-3-[(4-Nitrobenzoyl)oxy]-1-[4-(1-piperidinyl)-2-butynyl]-2-pyrrolidinone]: the IC50 is 43 µM in assay [1] (setting [3]) and 0.937 µM in assay [2].
In the same order, the values of `O=C(O[C@@H]1CCN(CC#CCN2CCCC2)C1=O)c1ccc([N+](=O)[O-])cc1` [(R)-3-[(4-Nitrobenzoyl)oxy]-1-[4-(1-pyrrolidinyl)-2-butynyl]-2-pyrrolidinone] are 59 µM and 4.29 µM.
As to `CC(=O)O[C@@H]1CC(=O)N(CC#CCN2CCCCC2)C1` [(R)-4-(Acetyloxy)-1-[4-(1-piperidinyl)-2-butynyl]-2-pyrrolidinone], the IC50 in assay [1] came to 181 µM; in assay [2] it was 8.08 µM.
In the same order, the values of `CC(=O)O[C@@H]1CC(=O)N(CC#CCN2CCCC2)C1` [(R)-4-(Acetyloxy)-1-[4-(1-pyrrolidinyl)-2-butynyl]-2-pyrrolidinone] are 46 µM and 0.914 µM.
In the same order, the values of `CC(=O)O[C@@H]1CC(=O)N(CC#CCN(C)C)C1` [(R)-4-(Acetyloxy)-1-[4-(dimethylamino)-2-butynyl]-2-pyrrolidinone] are 1780 µM and 11.5 µM.
For `O=C1C[C@@H](O)CN1CC#CCN1CCCCC1` [(R)-4-Hydroxy-1-[4-(1-piperidinyl)-2-butynyl]-2-pyrrolidinone] the same measures were 166 µM and 3.79 µM.
For `O=C1C[C@@H](O)CN1CC#CCN1CCCC1` [(R)-4-Hydroxy-1-[4-(1-pyrrolidinyl)-2-butynyl]-2-pyrrolidinone], the IC50 in assay [1] was determined as 52 µM; in assay [2] it was 0.053 µM.
For `CC(=O)S[C@@H]1CCN(CC#CCN(C)C)C1=O` [(R)-S-[1-[4-(Dimethylamino)-2-butynyl]-2-oxo-3-pyrrolidinyl]ethanethioic acid ester] the same measures were 20 µM and 0.062 µM.
Regarding `CC(=O)S[C@@H]1CCN(CC#CCN2CCCCC2)C1=O` [(R)-S-[2-Oxo-1-(4-piperidinyl-2-butynyl)-3-pyrrolidinyl]etha] [(R)-S-[2-Oxo-1-(4-piperidinyl-2-butynyl)-3-pyrrolidinyl]ethanethioic acid ester], the IC50 in assay [1] is 91 µM.
As for `CC(=O)S[C@@H]1CCN(CC#CCN2CCCCC2)C1=O` [(R)-S-[2-Oxo-1-(4-piperidinyl-2-butynyl)-3-pyrrolidinyl]ethanethioic acid ester], the IC50 in assay [2] was 0.946 µM.
For the molecule `CC(=O)S[C@@H]1CCN(CC#CCN2CCCCC2)C1=O` [(R)-S-[2-Oxo-1-[4-(1-piperidinyl)-2-butynyl]-3-pyrrolidinyl]] [(R)-S-[2-Oxo-1-[4-(1-piperidinyl)-2-butynyl]-3-pyrrolidinyl]ethanethioic acid ester], the IC50 in assay [1] amounted to 4.3 µM; in assay [2] it was 0.03 µM.
In the same order, the values of `CN(C)CC#CCN1CC[C@H](O[Si](C)(C)C(C)(C)C)C1=O` [(S)-1-[4-(Dimethylamino)-2-butynyl]-3-[[(1,1-dimethylethyl)dimethylsilyl]oxy]-2-pyrrolidinone] are 200 µM and 19.5 µM.
In the same order, the values of `CC(=O)O[C@H]1CCN(CC#CCN2CCCC2=O)C1` [(S)-1-[4-[3-(Acetyloxy)-1-pyrrolidinyl]-2-butynyl]-2-pyrrolidinone] are 2320 µM and 2.02 µM.
As to `CC(=O)O[C@H]1CCN(CC#CCN2CCCCC2)C1=O` [(S)-3-(Acetyloxy)-1-[4-(1-piperidinyl)-2-butynyl]-2-pyrrolidinone], the IC50 in assay [1] turned out to be 367 µM; in assay [2], 1.45 µM.
For `CC(=O)O[C@H]1CCN(CC#CCN2CCCC2)C1=O` [(S)-3-(Acetyloxy)-1-[4-(1-pyrrolidinyl)-2-butynyl]-2-pyrrolidinone] the same measures were 122 µM and 0.152 µM.
Turning to `CC(=O)O[C@H]1CCN(CC#CCN(C)C)C1=O` [(S)-3-(Acetyloxy)-1-[4-(dimethylamino)-2-butynyl]-2-pyrrolidinone], the IC50 was found to be 1360 µM in assay [1] and 0.521 µM in assay [2].
As to `O=C1[C@@H](O)CCN1CC#CCN1CCCCC1` [(S)-3-Hydroxy-1-[4-(1-piperidinyl)-2-butynyl]-2-pyrrolidinone], the IC50 worked out at 22 µM in assay [1] and 0.476 µM in assay [2].
In the same order, the values of `O=C1[C@@H](O)CCN1CC#CCN1CCCC1` [(S)-3-Hydroxy-1-[4-(1-pyrrolidinyl)-2-butynyl]-2-pyrrolidinone] are 11 µM and 0.009 µM.
As to `O=C1[C@@H](S)CCN1CC#CCN1CCCCC1` [(S)-3-Mercapto-1-[4-(1-piperidinyl)-2-butynyl]-2-pyrrolidinone, monohydrochloride], the results for the IC50 in assay [1] and in assay [2] were 2.5 µM and 0.955 µM, respectively.
Regarding `O=C1[C@@H](S)CCN1CC#CCN1CCCC1` [(S)-3-Mercapto-1-[4-(1-pyrrolidinyl)-2-butynyl]-2-pyrrolidinone, monohydrochloride], the values for the IC50 in assay [1] and in assay [2] were 2 µM and 0.048 µM, respectively.
For `CO[C@H]1CCN(CC#CCN2CCCCC2)C1=O` [(S)-3-Methoxy-1-[4-(1-piperidinyl)-2-butynyl]-2-pyrrolidinone] the same measures were 673 µM and 33.1 µM.

For the origin of these results see patent publication US4937235A, “3- or 4-substituted oxotremorine derivatives” (American Cyanamid Company, priority 1989, dated 1990).
